{"source": "patent US8110371B2", "about": "“Identifying organ damage” (The University Court of the University of Edinburgh, priority 2007, dated 2012)", "key": {"[1]": {"conditions": "NAC as antidote for APAP overdose; cited from earlier work"}, "[2]": {"system": "c-Jun", "test": "Western blot for c-Jun in urine exosomes of paracetamol overdose patients", "type": "in vivo, human", "conditions": "following paracetamol-induced liver injury in humans, FIG. 7", "protocol": "(§1) Six normal male volunteers (aged 23-40, MREC ethics approval number 06/MRE00/67) provided urine samples in sterile 50 ml plastic containers. To each urine sample a protease inhibitor was added (50:1 of 1 mM Leupeptin). […] 3 out of 6 of these patients had elevated serum alanine transaminase (ALT) 24 hours after admission indicating significant liver injury. The samples were centrifuged at 15000×g for 15 minutes at 4° C. to pellet the urinary sediment. The ‘15000×g supernatant’ was then centrifuged at 100 000 rpm for 1 hour at 4° C. to obtain low density urinary exosome pellets. The 100 000 rpm supernatant was decanted and replaced with an additional ‘15 000×g supernatant’ and ultracentrifuged again. The ultracentrifugation step was repeated 4-6 more times to harvest the exosome pellets from 18-24 ml of 15 000×g supernatant. Pellets were resuspended in 50 μl isolation solution (10 mM triethanolamine/250 mM sucrose (pH 7.6)).\n(§2) The amount of urine and MP protein was determined using the BCA™ Protein Assay Kit (Pierce, USA) and following the manufacturer's instructions. 20 μg of normal urine exosome samples were loaded per well. Loading amounts for each of the paracetemol overdose samples were normalised for urinary creatinine to account for differences in urine concentration. […]"}, "[3]": {"test": "Exosomal protein concentration of urine in paracetamol overdose patients (BCA protein assay)", "type": "in vivo, human", "conditions": "4 hours after paracetamol overdose", "protocol": "as §1, §2"}}}
{"smiles": "CC(=O)N[C@@H](CS)C(=O)O", "note": "[N-acetylcysteine]", "values": [{"measurement": "patients with adverse reactions", "setting": "[1]", "value": "around 15%"}]}
{"smiles": "CC(=O)Nc1ccc(O)cc1", "note": "[paracetamol, N-(4-hydroxyphenyl)ethanamide]", "values": [{"measurement": "urinary microparticle concentration of C-Jun protein", "setting": "[2]", "value": "increased"}, {"measurement": "increase in exosomal proteinuria compared to normal", "setting": "[3]; pooled sample from 3 patients with organ injury", "value": "~37", "unit": "fold"}, {"measurement": "increase in exosomal protein compared to normal healthy individuals", "setting": "[3]; pooled samples from 3 patients without organ injury", "value": "about 7 fold"}]}
